Results taken from patent US20240415819A1, “MACROCYCLIC COMPOUNDS AS PROTEASOME SUBUNIT BETA TYPE-5 INHIBITORS” (Lead Discovery Center GmbH, priority 2021, published 2024).

Experiments:
[1] = biological target: T1, β5 subunit of the human immunoproteasome (IPS) (Homo sapiens, UniProt P28062); test: β5 inhibition assay, human immunoproteasome (Suc-LLVY-AMC); assay type: biochemical; details: IC50 class, Suc-LLVY-AMC substrate
T1 construct: purchased Boston Biochem E-370
In short: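 β5 activity is read as liberated AMC fluorescence (355/460 nm) after 4 h dark reaction at RT with 22.6 μM Suc-LLVY-AMC, stopped by 1 μM bortezomib. Beforehand, 1 nM human IPS and compound sat 10 min at RT in HEPES pH 7.5 buffer containing NaCl, 0.02% SDS and DTT.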

HT-29 cells = test: CellTiter-Glo luminescent cell viability assay with HT-29 cells (72h incubation); assay type: cell-based, human; details: Homo sapiens, HT-29, HT29 cells, read-out: CTG HT29
In short: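 Viability read as CellTiter-Glo luminescence after 72 h compound exposure, with 10 μM staurosporine and DMSO as control wells. Seeding 400 cells per well, compound added 24 h post-plating; IC50 from curve fitting.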

[2] = biological target: T2, β5 subunit of the human constitutive proteasome (CPS) (Homo sapiens, UniProt P28074); test: β5 inhibition assay, human constitutive proteasome (Suc-LLVY-AMC); assay type: biochemical; details: IC50 class, Suc-LLVY-AMC substrate
T2 construct: purchased Boston Biochem E-360
Description: The enzymatic activity of the β5 subunit of the human constitutive proteasome (CPS) is analyzed. In another assay, which differs from the assay of the human constitutive proteasome only in using the human immunoproteasome (IPS) the enzymatic activity of the β5 subunit of the human immunoproteasome (IPS) is analyzed. […] Inhibition is indicated as IC50 [nM] (“-”=not measured).

| Structure (SMILES) | IC50 [1] | IC50 (HT-29 cells) | IC50 [2] |
| --- | --- | --- | --- |
| COCCOCCOCCOCCOCCC(=O)N[C@H]1CC(=O)N2CCCC(CCOc3ccc(C)c(c3)CNC(=O)[C@H](CCc3ccccc3)NC1=O)C2 (stereo partly drawn) [Compound 219, N-((9S,12S)-5^4-methyl-8,11,14-trioxo-9-phenethyl-4-oxa-7,10-diaza-1(3,1)-piperidina-5(1,3)-benzenacyclotetradecaphane-12-yl)-2,5,8,11,14-pentaoxaheptadecan-17-amide] | < 100 nM | < 100 nM | < 100 nM |
| Cc1ccc2cc1CNC(=O)[C@H](CCc1ccccc1)NC(=O)[C@@H](NC(=O)CN1CCCC1)CC(=O)N1CCCC(CCO2)C1 (stereo partly drawn) [Compound 89, N-((9S,12S)-5^4-methyl-8,11,14-trioxo-9-phenethyl-4-oxa-7,10-diaza-1(3,1)-piperidina-5(1,3)-benzenacyclotetradecaphane-12-yl)-2-(pyrrolidin-1-yl)acetamide] | < 100 nM | < 100 nM | < 100 nM |
| Cc1ccc2cc1CNC(=O)[C@H](CCc1ccccc1)NC(=O)[C@@H](NC(=O)C1(N)CCOC1)CC(=O)N1CCCC(CCO2)C1 (stereo partly drawn) [Compound 159, 3-amino-N-((9S,12S)-5^4-methyl-8,11,14-trioxo-9-phenethyl-4-oxa-7,10-diaza-1(3,1)-piperidina-5(1,3)-benzenacyclotetradecaphane-12-yl)tetrahydrofuran-3-carboxamide] | < 100 nM | < 100 nM | < 100 nM |
| CC(=O)N[C@H]1CC(=O)N2CCCC(CCOc3ccc(F)c(c3)CNC(=O)[C@H](CCc3ccccc3)NC1=O)C2 (stereo partly drawn) [Compound 205, N-((9S,12S)-5^4-fluoro-8,11,14-trioxo-9-phenethyl-4-oxa-7,10-diaza-1(3,1)-piperidina-5(1,3)-benzenacyclotetradecaphane-12-yl)acetamide] | < 100 nM | < 100 nM | < 100 nM |
| CC(=O)N[C@H]1CC(=O)N2CCOC(CCOc3ccc(C)c(c3)CNC(=O)[C@H](CCc3ccccc3)NC1=O)C2 (stereo partly drawn) [Compound 258, N-((9S,12S)-5^4-methyl-8,11,14-trioxo-9-phenethyl-4-oxa-7,10-diaza-1(2,4)-morpholina-5(1,3)-benzenacyclotetradecaphane-12-yl)acetamide] | < 100 nM | 100 to 500 nM | 100 to 500 nM |
| Cc1ccc2cc1CNC(=O)[C@H](CCc1ccccc1)NC(=O)[C@@H](NC(=O)C1(F)CCNCC1)CC(=O)N1CCCC(CCO2)C1 (stereo partly drawn) [Compound 134, 4-fluoro-N-((9S,12S)-5^4-methyl-8,11,14-trioxo-9-phenethyl-4-oxa-7,10-diaza-1(3,1)-piperidina-5(1,3)-benzenacyclotetradecaphane-12-yl)piperidine-4-carboxamide] | < 100 nM | < 100 nM | < 100 nM |
| Cc1ccc2cc1CNC(=O)[C@H](CCc1ccccc1)NC(=O)[C@@H](NC(=O)[C@H](C)c1ccccc1)CC(=O)N1CCCC(CCO2)C1 (stereo partly drawn) [Compound 80, (2R)-N-((9S,12S)-5^4-methyl-8,11,14-trioxo-9-phenethyl-4-oxa-7,10-diaza-1(3,1)-piperidina-5(1,3)-benzenacyclotetradecaphane-12-yl)-2-phenylpropanamide] | < 100 nM | < 100 nM | < 100 nM |
| Cc1ccc2cc1CNC(=O)[C@H](CCc1ccccc1)NC(=O)[C@@H](NC(=O)C1CC(F)(F)CN1)CC(=O)N1CCCC(CCO2)C1 (stereo partly drawn) [Compound 135, (2S)-4,4-difluoro-N-((9S,12S)-5^4-methyl-8,11,14-trioxo-9-phenethyl-4-oxa-7,10-diaza-1(3,1)-piperidina-5(1,3)-benzenacyclotetradecaphane-12-yl)pyrrolidine-2-carboxamide] | < 100 nM | < 100 nM | < 100 nM |
| Cc1ccc2cc1CNC(=O)C(CCc1cccnc1)NC(=O)CCC(=O)N1CCCC(CCO2)C1 (stereo not drawn) [Compound 51, 5^4-methyl-9-(2-(pyridin-3-yl)ethyl)-4-oxa-7,10-diaza-1(3,1)-piperidina-5(1,3)-benzenacyclotetradecaphane-8,11,14-trione] | < 100 nM | 1000 to 5000 nM | < 100 nM |
| Cc1ccc2cc1CNC(=O)[C@H](CCc1ccccc1)NC(=O)[C@@H](Nc1nc3ccccc3[nH]1)CC(=O)N1CCCC(CCO2)C1 (stereo partly drawn) [Compound 45, (9S,12S)-12-((1H-benzo[d]imidazol-2-yl)amino)-5^4-methyl-9-phenethyl-4-oxa-7,10-diaza-1(3,1)-piperidina-5(1,3)-benzenacyclotetradecaphane-8,11,14-trione] | < 100 nM | 100 to 500 nM | < 100 nM |
| COc1ccc(CC(=O)N[C@H]2CC(=O)N3CCCC(CCOc4ccc(C)c(c4)CNC(=O)[C@H](CCc4ccccc4)NC2=O)C3)cc1 (stereo partly drawn) [Compound 83, 2-(4-methoxyphenyl)-N-((9S,12S)-5^4-methyl-8,11,14-trioxo-9-phenethyl-4-oxa-7,10-diaza-1(3,1)-piperidina-5(1,3)-benzenacyclotetradecaphane-12-yl)acetamide] | < 100 nM | < 100 nM | < 100 nM |
| Cc1ccc2cc1CNC(=O)[C@H](CCc1ccccc1)NC(=O)[C@@H](NC(=O)OCc1ccccc1)CCC(=O)N1CCCC(CCO2)C1 (stereo partly drawn) [Compound 199, benzyl ((9S,12S)-5^4-methyl-8,11,15-trioxo-9-phenethyl-4-oxa-7,10-diaza-1(3,1)-piperidina-5(1,3)-benzenacyclopentadecaphane-12-yl)carbamate] | < 100 nM | < 100 nM | < 100 nM |
| Cc1ccc2cc1CNC(=O)[C@H](CCc1ccccc1)NC(=O)[C@@H](NC(=O)CN1CCOCC1)CC(=O)N1CCCC(CCO2)C1 (stereo partly drawn) [Compound 88, N-((9S,12S)-5^4-methyl-8,11,14-trioxo-9-phenethyl-4-oxa-7,10-diaza-1(3,1)-piperidina-5(1,3)-benzenacyclotetradecaphane-12-yl)-2-morpholinoacetamide] | < 100 nM | < 100 nM | < 100 nM |
| Cc1nc2cc(CCC(=O)N[C@H]3CC(=O)N4CCCC(CCOc5ccc(C)c(c5)CNC(=O)[C@H](CCc5ccccc5)NC3=O)C4)ccc2[nH]1 (stereo partly drawn) [Compound 174, 3-(2-methyl-1H-benzo[d]imidazol-6-yl)-N-((9S,12S)-5^4-methyl-8,11,14-trioxo-9-phenethyl-4-oxa-7,10-diaza-1(3,1)-piperidina-5(1,3)-benzenacyclotetradecaphane-12-yl)propanamide] | < 100 nM | < 100 nM | < 100 nM |
| Cc1ccc2cc1CNC(=O)[C@H](CCc1ccccc1)NC(=O)[C@@H](NC(=O)c1cc3cc(C(F)(F)F)ccc3n1C)CC(=O)N1CCCC(CCO2)C1 (stereo partly drawn) [Compound 87, 1-methyl-N-((9S,12S)-5^4-methyl-8,11,14-trioxo-9-phenethyl-4-oxa-7,10-diaza-1(3,1)-piperidina-5(1,3)-benzenacyclotetradecaphane-12-yl)-5-(trifluoromethyl)-1H-indole-2-carboxamide] | < 100 nM | < 100 nM | < 100 nM |
| Cc1ccc2cc1CNC(=O)[C@H](CCc1ccccc1)NC(=O)[C@@H](NC(=O)CN1CCNCC1)CC(=O)N1CCCC(CCO2)C1 (stereo partly drawn) [Compound 126, N-((9S,12S)-5^4-methyl-8,11,14-trioxo-9-phenethyl-4-oxa-7,10-diaza-1(3,1)-piperidina-5(1,3)-benzenacyclotetradecaphane-12-yl)-2-(piperazin-1-yl)acetamide] | < 100 nM | 100 to 500 nM | < 100 nM |
